Laboratory results from patent publication US20110070174A1, “Benzoyl Peroxide and Sunscreen Agent Combination” (PruGen IP Holdings, Inc., priority 2009, published 2011).

Assays:
Type in all cases: physicochemical
[1] = Stability Study 1: BPO/sunscreen mixture, one month at room temperature; conditions: for 1 MONTH-RT (content) / 1 MONTH-RT (percent of initial, in brackets): Study 1, 1 month room temperature; for % INITIAL (percent of initial, in brackets) / % INITIAL (content): Study 1, initial; for % INITIAL (content): in BPO/sunscreen mixture
From the text: (§1) The stability provided by using the above formula and mixing process has heretofore been unmatched.

[2] = Stability Study 2: BPO/sunscreen mixture, one month at room temperature; conditions: for 1 MONTH-RT (content) / 1 MONTH-RT (percent of initial, in brackets): Study 2, 1 month room temperature; for % INITIAL (percent of initial, in brackets) / % INITIAL (content): Study 2, initial; for % INITIAL (content): in BPO/sunscreen mixture
From the text: as §1

[3] = Stability Study 3: BPO/sunscreen mixture, one month at room temperature; conditions: for 1 MONTH-RT (content) / 1 MONTH-RT (percent of initial, in brackets): Study 3, 1 month room temperature; for % INITIAL (percent of initial, in brackets) / % INITIAL (content): Study 3, initial; for % INITIAL (content): in BPO/sunscreen mixture
From the text: as §1

[4] = Stability Study 4: BPO/sunscreen mixture, one month at room temperature; conditions: for 1 MONTH-RT (content) / 1 MONTH-RT (percent of initial, in brackets): Study 4, 1 month room temperature; for % INITIAL (percent of initial, in brackets) / % INITIAL (content): Study 4, initial; for % INITIAL (content): in BPO/sunscreen mixture
From the text: as §1

[5] = Stability of sunscreen base and benzoyl peroxide each before mixing; conditions: each agent separately, one-month repeatable studies
From the text: as §1

[6] = Multiple one-month room temperature studies after mixing the agents together; conditions: BPO at various percentages
From the text: as §1

SMILES | 1 MONTH-RT (content) [1] [%] | 1 MONTH-RT (percent of initial, in brackets) [1] [%] | % INITIAL (percent of initial, in brackets) [1] [%] | % INITIAL (content) [1] [%] | 1 MONTH-RT (content) [2] [%] | 1 MONTH-RT (percent of initial, in brackets) [2] [%] | % INITIAL (percent of initial, in brackets) [2] [%] | % INITIAL (content) [2] [%] | 1 MONTH-RT (content) [3] [%] | 1 MONTH-RT (percent of initial, in brackets) [3] [%] | % INITIAL (percent of initial, in brackets) [3] [%] | % INITIAL (content) [3] [%] | 1 MONTH-RT (content) [4] [%] | 1 MONTH-RT (percent of initial, in brackets) [4] [%] | % INITIAL (percent of initial, in brackets) [4] [%] | % INITIAL (content) [4] [%] | stability of each agent [5] | potency after mixing [6]
O=C(OOC(=O)c1ccccc1)c1ccccc1 [BPO, Benzoyl peroxide] | 7.76 | 108 | 100 | 7.16 | 8.07 | 94 | 100 | 8.55 | 6.48 | 107 | 100 | 6.02 | 7.76 | 108 | 100 | 7.16 | stable for at least one year | remained at full potency
CCCCC(CC)COC(=O)C(C#N)=C(c1ccccc1)c1ccccc1 (stereo not shown) [Octocrylene] | 6.42 | 101 | 100 | 6.33 | – | – | – | – | – | – | – | – | 6.42 | 101 | 100 | 6.33 | – | –
COc1ccc(C(=O)CC(=O)c2ccc(C(C)(C)C)cc2)cc1 [Avobenzone] | – | – | – | – | 2.78 | 86 | 100 | 3.23 | 2.69 | 91.5 | 100 | 2.94 | – | – | – | – | – | –
